# Data as given in ChEMBL document CHEMBL5154879, “Induction of Genes Implicated in Stress Response and Autophagy by a Novel Quinolin-8-yl-nicotinamide QN523 in Pancreatic Cancer” (J Med Chem, 2022).
# Calls of active or inactive are those of the source. The calls are words filed in the database; no cut-off is given here.
# What was measured:
# [1] = test system: MIA PaCa-2; experiment: Cytotoxicity against human MIA PaCa-2 cells assessed as inhibition of cell growth incubated for 72 hrs by MTT assay; type: functional, cell-based; details: MIA PaCa-2, 72 h
# [2] = test system: BXPC-3; experiment: Cytotoxicity against human BXPC-3 cells assessed as inhibition of cell growth incubated for 72 hrs by MTT assay; type: functional, cell-based; details: BXPC-3, 72 h
# [3] = test system: SNU-398; experiment: Antiproliferative activity against human SNU-398 cells assessed as inhibition of cell growth incubated for 72 hrs by MTT assay; type: functional, cell-based; details: SNU-398, 72 h
# [4] = Cytotoxicity against HEK293 cells assessed as inhibition of cell growth incubated for 72 hrs by MTT assay; type: toxicity, cell-based; details: human
# [5] = test system: PANC-1; experiment: Inhibition of colony formation in human PANC-1 cells at 1 uM incubated for 10 to 14 days by crystal violet staining based assay; type: functional, cell-based; details: time 10-14 day
# [6] = test system: MIA PaCa-2; experiment: Antiproliferative activity against human MIA PaCa-2 cells assessed as inhibition of cell growth at 0.1 to 10 uM incubated for 1 to 72 hrs followed by compound washout with PBS and replacement with fresh culture medium and measured after 72 hrs by MTT assay; type: functional, cell-based; details: dose 0.1-10 µM, time 1-72 hrs, TDE = time-dependent effect
# [7] = test system: MIA PaCa-2; experiment: Induction of apoptosis in human MIA PaCa-2 cells assessed as late apoptotic cells at 0.5 uM incubated for 24 hrs by Annexin V-FITC/PI staining based flow cytometry analysis (reference value: 2.04%); type: functional
# [8] = test system: MIA PaCa-2; experiment: Induction of apoptosis in human MIA PaCa-2 cells assessed as late apoptotic cells at 0.5 uM incubated for 48 hrs by Annexin V-FITC/PI staining based flow cytometry analysis (reference value: 0.8%); type: functional
# [9] = test system: MIA PaCa-2; experiment: Antitumor activity against human MIA PaCa-2 cells xenografted in NOD/SCID mouse assessed as tumor growth delay at 20 mg/kg, ip administered five times a week starting from day 10 to 44 post first dose and measured from day 17; type: functional, organism-based; details: time 44.0 day
# [10] = Toxicity in NOD/SCID mouse xenografted with human MIA PaCa-2 cells assessed as weight loss at 10 to 20 mg/kg, ip administered five times a week for 44 days; type: organism-based; details: in vivo, 1056 h, dose 10-20 mg/kg, time 44 day
# [11] = Toxicity in NOD/SCID mouse xenografted with human MIA PaCa- 2 cells assessed as morphological changes in pancreas at 10 to 20 mg/kg, ip administered five times a week for 44 days by H and E staining based inverted microscopic analysis; type: organism-based; details: in vivo, 1056 h, dose 10-20 mg/kg, time 44 day
# [12] = Upregulation of UPP1 gene expression in human MIA PaCa-2 cells assessed as fold change in UPP1 expression at 1 uM incubated for 24 hrs by Bru-seq analysis relative to control; type: functional
# [13] = Upregulation of TRIB3 gene expression in human MIA PaCa-2 cells assessed as fold change in TRIB3 expression at 1 uM incubated for 24 hrs by Bru-seq analysis relative to control; type: functional
# [14] = Upregulation of MAP1LC3B gene expression in human MIA PaCa-2 cells assessed as fold change in MAP1LC3B expression at 1 uM incubated for 24 hrs by Bru-seq analysis relative to control; type: functional
# [15] = Upregulation of CXCL8 gene expression in human MIA PaCa-2 cells assessed as fold change in CXCL8 expression at 1 uM incubated for 24 hrs by Bru-seq analysis relative to control; type: functional
# [16] = Upregulation of OSGIN1 gene expression in human MIA PaCa-2 cells assessed as fold change in OSGIN1 expression at 1 uM incubated for 24 hrs by Bru-seq analysis relative to control; type: functional
# [17] = Upregulation of ARG2 gene expression in human MIA PaCa-2 cells assessed as fold change in ARG2 expression at 1 uM incubated for 24 hrs by Bru-seq analysis relative to control; type: functional
# [18] = Downregulation of FGF18 gene expression in human MIA PaCa-2 cells assessed as fold change in FGF18 expression at 1 uM incubated for 24 hrs by Bru-seq analysis relative to control; type: functional
# [19] = Downregulation of PLEKHG3 gene expression in human MIA PaCa-2 cells assessed as fold change in PLEKHG3 expression at 1 uM incubated for 24 hrs by Bru-seq analysis relative to control; type: functional
# [20] = Downregulation of TNFAIP8LI gene expression in human MIA PaCa-2 cells assessed as fold change in TNFAIP8LI expression at 1 uM incubated for 24 hrs by Bru-seq analysis relative to control; type: functional
# [21] = Downregulation of RGS3 gene expression in human MIA PaCa-2 cells assessed as fold change in RGS3 expression at 1 uM incubated for 24 hrs by Bru-seq analysis relative to control; type: functional
# [22] = test system: MIA PaCa-2; experiment: Induction of circadian rhythm signaling pathway in human MIA PaCa-2 cells by ingenuity pathway analysis; type: functional, cell-based
# [23] = test system: MIA PaCa-2; experiment: Upregulation of apoptosis transcription gene expression in human MIA PaCa-2 cells; type: functional, cell-based
# [24] = test system: MIA PaCa-2; experiment: Upregulation of UPR gene expression in human MIA PaCa-2 cells by gene set enrichment analysis; type: functional, cell-based
# [25] = test system: MIA PaCa-2; experiment: Upregulation of MTOR signalling in human MIA PaCa-2 cells by gene set enrichment analysis; type: functional, cell-based
# [26] = test system: MIA PaCa-2; experiment: Upregulation of ATF3 gene expression in human MIA PaCa-2 cells incubated for 72 hrs by Western blot analysis; type: functional, cell-based; details: dose <= 600.0 µM, DDE = dose-dependent effect
smiles,measurement,setting,value
O=C(Nc1cccc2cccnc12)c1cnccn1,IC50,[1],110 nM
same,IC50,[2],3300 nM
same,IC50,[3],1900 nM
same,IC50 at 72 h,[4],150 nM
same,inhibition,[5],Active
same,Activity,[6],Tde
same,Activity,[7],2.1%
same,Activity,[8],1.8%
same,Activity,[9],Active
same,Activity,[10],Non-Toxic
same,Activity,[11],Non-Toxic
same,fold change (FC),[12],18.2
same,fold change (FC),[13],14.5
same,fold change (FC),[14],6.8
same,fold change (FC),[15],6
same,fold change (FC),[16],7.8
same,fold change (FC),[17],12
same,fold change (FC),[18],0.32
same,fold change (FC),[19],0.39
same,fold change (FC),[20],0.32
same,fold change (FC),[21],0.46
same,Activity,[22],Active
same,Activity,[23],Active
same,Activity,[24],Active
same,Activity,[25],Active
same,Activity,[26],Dde
